# Assay results taken from PMC10850145, “Hormonal steroids induce multidrug resistance and stress response genes in Neisseria gonorrhoeae by binding to MtrR” (Nature Communications, 2024).
# “And” between values parts separate entries of the source, which are not always exact repeats. Equal values may be shown once. Read-outs that look alike come from different tables or passages of the source.
# Test system: mtrC-lacZ expression
# Assay type: cell-based, Neisseria gonorrhoeae
# Conditions: for β-galactosidase activity, Mean / β-galactosidase activity, single replicate: mtrCDE block (c1-c37), ΔmtrR + mtrR R176E in trans; for β-galactosidase activity, individual replicate / β-galactosidase activity, Miller units (single replicate): mtrR WT in cis; for β-galactosidase activity, individual replicate: single replicate values, second (right) block
# [1] = mtrC-lacZ, ΔmtrR + mtrR D171A in trans, 6.25 µM hormone, single replicate
# [2] = mtrC-lacZ, ΔmtrR + mtrR D171A in trans, 12.5 µM hormone, single replicate
# [3] = mtrC-lacZ, ΔmtrR + mtrR D171A in trans, 25 µM hormone, single replicate
# [4] = mtrC-lacZ, ΔmtrR + mtrR D171A in trans, 50 µM hormone, single replicate
# [5] = mtrC-lacZ, ΔmtrR + mtrR WT in trans, 6.25 µM hormone, single replicate
# [6] = mtrC-lacZ, ΔmtrR + mtrR WT in trans, 12.5 µM hormone, single replicate
# [7] = mtrC-lacZ, ΔmtrR + mtrR WT in trans, 25 µM hormone, single replicate
# [8] = mtrC-lacZ, ΔmtrR + mtrR WT in trans, 50 µM hormone, single replicate
smiles,measurement,setting,value
"C[C@]12CC[C@@H]3c4ccc(O)cc4CC[C@H]3[C@@H]1CC[C@@H]2O [β-Estradiol, β-estradiol]","Miller units, Mean","Mean of plate rows 1-4, plate columns 1-6 (first strain), 6.25 µM hormone",83 Miller units
same,"Miller units, Mean","Mean of plate rows 1-4, plate columns 1-6 (first strain), 12.5 µM hormone",113 Miller units
same,"Miller units, Mean","Mean of plate rows 1-4, plate columns 1-6 (first strain), 25 µM hormone",148 Miller units
same,"Miller units, Mean","Mean of plate rows 1-4, plate columns 1-6 (first strain), 50 µM hormone",162 Miller units
same,"Miller units, Mean","Mean of plate rows 1-4, plate columns 7-12 (second strain), 6.25 µM hormone",163 Miller units
same,"Miller units, Mean","Mean of plate rows 1-4, plate columns 7-12 (second strain), 12.5 µM hormone",152 Miller units
same,"Miller units, Mean","Mean of plate rows 1-4, plate columns 7-12 (second strain), 25 µM hormone",175 Miller units
same,"Miller units, Mean","Mean of plate rows 1-4, plate columns 7-12 (second strain), 50 µM hormone",160 Miller units
same,induction of mtrC expression,"complemented (MtrR+) strains, increasing hormone",could be induced
same,induction of mtrC expression,loss of MtrR or MtrR-D171A strain,abrogated
same,"Miller units, Mean","mtrC-lacZ, WT strain, 6.25 µM hormone",131 Miller units
same,β-galactosidase activity (Miller units),"mtrC-lacZ, WT strain, 6.25 µM hormone, single replicate",164 Miller units and 114 Miller units and 120 Miller units
same,"Miller units, Mean","mtrC-lacZ, WT strain, 12.5 µM hormone",148 Miller units
same,β-galactosidase activity (Miller units),"mtrC-lacZ, WT strain, 12.5 µM hormone, single replicate",178 Miller units and 161 Miller units and 132 Miller units
same,"Miller units, Mean","mtrC-lacZ, WT strain, 25 µM hormone",177 Miller units
same,β-galactosidase activity (Miller units),"mtrC-lacZ, WT strain, 25 µM hormone, single replicate",160 Miller units and 189 Miller units
same,"Miller units, Mean","mtrC-lacZ, WT strain, 50 µM hormone",224 Miller units
same,β-galactosidase activity (Miller units),"mtrC-lacZ, WT strain, 50 µM hormone, single replicate",242 Miller units and 240 Miller units and 211 Miller units
same,"Miller units, Mean","mtrC-lacZ, WT, 6.25 µM hormone",131 Miller units
same,Miller units,"mtrC-lacZ, WT, 6.25 µM hormone, single replicate (plate data)",164 Miller units and 114 Miller units and 128 Miller units and 120 Miller units
same,"Miller units, Mean","mtrC-lacZ, WT, 12.5 µM hormone",148 Miller units
same,Miller units,"mtrC-lacZ, WT, 12.5 µM hormone, single replicate (plate data)",178 Miller units and 161 Miller units and 120 Miller units and 132 Miller units
same,"Miller units, Mean","mtrC-lacZ, WT, 25 µM hormone",177 Miller units
same,Miller units,"mtrC-lacZ, WT, 25 µM hormone, single replicate (plate data)",160 Miller units and 176 Miller units and 189 Miller units
same,"Miller units, Mean","mtrC-lacZ, WT, 50 µM hormone",224 Miller units
same,Miller units,"mtrC-lacZ, WT, 50 µM hormone, single replicate (plate data)",242 Miller units and 240 Miller units and 203 Miller units and 211 Miller units
same,"Miller units, Mean","mtrC-lacZ, ΔmtrR + mtrR D171A in trans, 6.25 µM hormone",148.9 Miller units
same,Miller units,[1],158 Miller units and 155 Miller units
same,β-galactosidase activity (Miller units),[1],155 Miller units and 147 Miller units and 135 Miller units
same,"Miller units, Mean","mtrC-lacZ, ΔmtrR + mtrR D171A in trans, 12.5 µM hormone",157.2 Miller units
same,Miller units,[2],167 Miller units and 147 Miller units
same,β-galactosidase activity (Miller units),[2],147 Miller units and 195 Miller units and 119 Miller units
same,"Miller units, Mean","mtrC-lacZ, ΔmtrR + mtrR D171A in trans, 25 µM hormone",167.0 Miller units
same,Miller units,[3],203 Miller units and 162 Miller units
same,β-galactosidase activity (Miller units),[3],162 Miller units and 132 Miller units and 171 Miller units
same,"Miller units, Mean","mtrC-lacZ, ΔmtrR + mtrR D171A in trans, 50 µM hormone",162.7 Miller units
same,Miller units,[4],193 Miller units
same,β-galactosidase activity (Miller units),[4],188 Miller units and 124 Miller units and 146 Miller units
same,"Miller units, Mean","mtrC-lacZ, ΔmtrR + mtrR WT in trans, 6.25 µM hormone",116 Miller units
same,Miller units,[5],106 Miller units and 141 Miller units and 104 Miller units and 116 Miller units
same,β-galactosidase activity (Miller units),[5],106 Miller units and 141 Miller units and 104 Miller units and 116 Miller units
same,"Miller units, Mean","mtrC-lacZ, ΔmtrR + mtrR WT in trans, 12.5 µM hormone",113 Miller units
same,Miller units,[6],119 Miller units and 115 Miller units and 110 Miller units
same,β-galactosidase activity (Miller units),[6],119 Miller units and 115 Miller units and 110 Miller units
same,"Miller units, Mean","mtrC-lacZ, ΔmtrR + mtrR WT in trans, 25 µM hormone",138 Miller units
same,Miller units,[7],133 Miller units and 147 Miller units and 127 Miller units and 144 Miller units
same,β-galactosidase activity (Miller units),[7],133 Miller units and 147 Miller units and 127 Miller units and 144 Miller units
same,"Miller units, Mean","mtrC-lacZ, ΔmtrR + mtrR WT in trans, 50 µM hormone",158 Miller units
same,Miller units,[8],176 Miller units and 161 Miller units and 132 Miller units and 164 Miller units
same,β-galactosidase activity (Miller units),[8],176 Miller units and 161 Miller units and 132 Miller units and 164 Miller units
same,"Miller units, Mean","mtrC-lacZ, ΔmtrR strain, 6.25 µM hormone",210 Miller units
same,β-galactosidase activity (Miller units),"mtrC-lacZ, ΔmtrR strain, 6.25 µM hormone, single replicate",187 Miller units and 203 Miller units and 200 Miller units
same,"Miller units, Mean","mtrC-lacZ, ΔmtrR strain, 12.5 µM hormone",218 Miller units
same,β-galactosidase activity (Miller units),"mtrC-lacZ, ΔmtrR strain, 12.5 µM hormone, single replicate",197 Miller units and 237 Miller units and 209 Miller units
same,"Miller units, Mean","mtrC-lacZ, ΔmtrR strain, 25 µM hormone",243 Miller units
same,β-galactosidase activity (Miller units),"mtrC-lacZ, ΔmtrR strain, 25 µM hormone, single replicate",261 Miller units and 223 Miller units and 202 Miller units
same,"Miller units, Mean","mtrC-lacZ, ΔmtrR strain, 50 µM hormone",255 Miller units
same,β-galactosidase activity (Miller units),"mtrC-lacZ, ΔmtrR strain, 50 µM hormone, single replicate",220 Miller units and 317 Miller units
same,"Miller units, Mean","mtrC-lacZ, ΔmtrR, 6.25 µM hormone",210 Miller units
same,Miller units,"mtrC-lacZ, ΔmtrR, 6.25 µM hormone, single replicate (plate data)",203 Miller units and 200 Miller units and 187 Miller units and 250 Miller units
same,"Miller units, Mean","mtrC-lacZ, ΔmtrR, 12.5 µM hormone",218 Miller units
same,Miller units,"mtrC-lacZ, ΔmtrR, 12.5 µM hormone, single replicate (plate data)",237 Miller units and 209 Miller units and 197 Miller units and 228 Miller units
same,"Miller units, Mean","mtrC-lacZ, ΔmtrR, 25 µM hormone",243 Miller units
same,Miller units,"mtrC-lacZ, ΔmtrR, 25 µM hormone, single replicate (plate data)",223 Miller units and 202 Miller units and 261 Miller units and 287 Miller units
same,"Miller units, Mean","mtrC-lacZ, ΔmtrR, 50 µM hormone",255 Miller units
same,Miller units,"mtrC-lacZ, ΔmtrR, 50 µM hormone, single replicate (plate data)",317 Miller units and 220 Miller units and 261 Miller units
same,"β-galactosidase activity, Mean",6.25 µM,194 Miller units
same,"β-galactosidase activity, single replicate",6.25 µM,207 Miller units and 196 Miller units and 188 Miller units
same,"β-galactosidase activity, Mean",12.5 µM,205 Miller units
same,"β-galactosidase activity, single replicate",12.5 µM,258 Miller units and 180 Miller units and 177 Miller units and 206 Miller units
same,"β-galactosidase activity, Mean",25 µM,197 Miller units
same,"β-galactosidase activity, single replicate",25 µM,241 Miller units and 190 Miller units and 188 Miller units and 169 Miller units
same,"β-galactosidase activity, Mean",50 µM,269 Miller units
same,"β-galactosidase activity, single replicate",50 µM,316 Miller units and 254 Miller units and 275 Miller units and 231 Miller units
same,"β-galactosidase activity, individual replicate",6.25 µM hormone,54 Miller units and 39 Miller units
same,"β-galactosidase activity, Miller units (single replicate)","6.25 µM, first data set (c15-c36)",147 Miller units and 157 Miller units and 114 Miller units and 129 Miller units
same,"β-galactosidase activity, Miller units (single replicate)","6.25 µM, second data set (c53-c74)",43 Miller units and 41 Miller units
same,"β-galactosidase activity, individual replicate",12.5 µM hormone,72 Miller units and 56 Miller units
same,"β-galactosidase activity, Miller units (single replicate)","12.5 µM, first data set (c15-c36)",160 Miller units and 155 Miller units and 156 Miller units and 149 Miller units
same,"β-galactosidase activity, Miller units (single replicate)","12.5 µM, second data set (c53-c74)",45 Miller units and 43 Miller units
same,"β-galactosidase activity, individual replicate",25 µM hormone,63 Miller units
same,"β-galactosidase activity, Miller units (single replicate)","25 µM, first data set (c15-c36)",152 Miller units and 181 Miller units and 159 Miller units and 157 Miller units
same,"β-galactosidase activity, Miller units (single replicate)","25 µM, second data set (c53-c74)",63 Miller units and 52 Miller units
